# Reference: ChEMBL document CHEMBL5500393, “Discovery and Optimization of Novel SaFabI Inhibitors as Specific Therapeutic Agents for MRSA Infection” (J Med Chem, 2024)
# The source made the active and inactive calls. The rule behind the calls is not given here.
# What was measured:
# Staphylococcus aureus [1] = assay: Antimicrobial activity against […] Staphylococcus aureus ATCC43300 measured after 24 hrs by CLSI protocol based microdilution method; type: functional
# [2] = target: T1, Enoyl-[acyl-carrier-protein] reductase [NADPH] FabI (Staphylococcus aureus) (UniProt Q6GI75); assay: Inhibition of N-terminal his 6 tagged Staphylococcus aureus Fabi (1 to […] residues) expressed in Escherichia coli BL21 at 1 uM incubated for 30 mins in presence of NADPH by fluorescence based microplate reader analysis relative to control
# T1 sequence (whole entry): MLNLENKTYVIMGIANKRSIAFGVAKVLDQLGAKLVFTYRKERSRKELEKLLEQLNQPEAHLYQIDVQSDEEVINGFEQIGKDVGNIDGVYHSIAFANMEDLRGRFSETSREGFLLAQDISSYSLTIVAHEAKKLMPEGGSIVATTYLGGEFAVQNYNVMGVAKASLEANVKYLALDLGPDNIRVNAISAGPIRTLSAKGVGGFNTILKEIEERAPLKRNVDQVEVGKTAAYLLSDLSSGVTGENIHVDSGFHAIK
# Candida albicans = assay: Antimicrobial activity against Candida albicans SC5314 measured after 48 hrs by CLSI protocol based microdilution method; type: functional
# Acinetobacter baumannii = assay: Antimicrobial activity against Acinetobacter baumannii ATCC19606 measured after 24 hrs by CLSI protocol based microdilution method; type: functional
# Staphylococcus aureus [3] = assay: Antimicrobial activity against methicillin-susceptible Staphylococcus aureus ATCC25923 measured after 24 hrs by CLSI protocol based microdilution method; type: functional
# [4] = target: T1, Enoyl-[acyl-carrier-protein] reductase [NADPH] FabI (Staphylococcus aureus); assay: Inhibition of N-terminal his 6 tagged Staphylococcus aureus Fabi (1 to […] residues) expressed in Escherichia coli BL21 at 10 uM incubated for 30 mins in presence of NADPH by fluorescence based microplate reader analysis relative to control
# Pseudomonas aeruginosa = assay: Antimicrobial activity against Pseudomonas aeruginosa PAO1 measured after 24 hrs by CLSI protocol based microdilution method; type: functional
# Escherichia coli = assay: Antimicrobial activity against Escherichia coli ATCC25922 measured after 24 hrs by CLSI protocol based microdilution method; type: functional
# [5] = Inhibition of N-terminal his 6 tagged Acinetobacter baumannii Fabi (1 to 804 residues) expressed in Escherichia coli BL21 incubated for 30 mins in presence of NADH by fluorescence based microplate reader analysis
# Enterococcus faecalis = assay: Antimicrobial activity against Enterococcus faecalis ATCC29212 measured after 24 hrs by CLSI protocol based microdilution method; type: functional
# Staphylococcus aureus [6] = assay: Antimicrobial activity against methicillin-susceptible Staphylococcus aureus ATCC29213 measured after 24 hrs by CLSI protocol based microdilution method; type: functional
# Staphylococcus aureus [7] = assay: Antimicrobial activity against […] Staphylococcus aureus USA300 measured after 24 hrs by CLSI protocol based microdilution method; type: functional
# [8] = Inhibition of N-terminal his 6 tagged Escherichia coli Fabi (1 to 789 residues) expressed in Escherichia coli BL21 incubated for 30 mins in presence of NADH by fluorescence based microplate reader analysis
# Staphylococcus aureus [9] = assay: Antimicrobial activity against […] Staphylococcus aureus ATCC33591 measured after 24 hrs by CLSI protocol based microdilution method; type: functional
# Enterococcus faecium = assay: Antimicrobial activity against Enterococcus faecium ATCC19434 measured after 24 hrs by CLSI protocol based microdilution method; type: functional
# Staphylococcus aureus [10] = assay: Antimicrobial activity against […] Staphylococcus aureus NRS271 measured after 24 hrs by CLSI protocol based microdilution method; type: functional
# [11] = target: T2, Enoyl-[acyl-carrier-protein] reductase [NADPH] FabI (Staphylococcus aureus, UniProt Q6GI75); assay: Inhibition of N-terminal his 6 tagged Staphylococcus aureus Fabi (1 to […] residues) expressed in Escherichia coli BL21 incubated for 30 mins in presence of NADPH by fluorescence based microplate reader analysis
# T2 sequence (Q6GI75 whole entry): T1 sequence (whole entry)
# Staphylococcus aureus [12] = assay: Antimicrobial activity against […] Staphylococcus aureus ATCC33591 assessed as reduction in RNA content measured after 4 hrs by microplate reader based analysis; type: functional
# [13] = Hemolytic activity in sheep erythrocytes assessed as hemolysis at 64 ug/ml incubated for 1 hr by microplate reader based analysis relative to control; type: toxicity, cell-based, Ovis aries, Erythrocyte; conditions: at 64 µg/mL, read-out: Activity
# [14] = Selectivity index, ratio of HC50 for sheep erythrocytes to MIC for Staphylococcus aureus; type: toxicity; conditions: read-out: Selectivity Index
# HepG2 [15] = assay: Cytotoxicity against human HepG2 cells assessed as survival rate at 400 uM measured after 48 hrs by CCK-8 method relative to control; type: functional; conditions: read-out: Survival
# [16] = Cytotoxicity against HEK293 cells assessed as survival rate at 800 uM measured after 48 hrs by CCK-8 method relative to control; type: toxicity, cell-based; conditions: human, read-out: Survival
# [17] = Hemolytic activity in sheep erythrocytes assessed as hemolysis incubated for 1 hr by microplate reader based analysis; type: toxicity, cell-based, Ovis aries, Erythrocyte
# [18] = Cytotoxicity against HEK293 cells assessed as survival rate at 400 uM measured after 48 hrs by CCK-8 method relative to control; type: toxicity, cell-based; conditions: human, read-out: Survival
# Staphylococcus aureus [19] = assay: Antimicrobial activity against Staphylococcus aureus measured after 24 hrs by CLSI protocol based microdilution method; type: functional
# [20] = Hemolytic activity in sheep erythrocytes assessed as hemolysis at 256 ug/ml incubated for 1 hr by microplate reader based analysis relative to control; type: toxicity, cell-based, Ovis aries, Erythrocyte; conditions: at 256 µg/mL, read-out: Activity
# HepG2 [21] = assay: Cytotoxicity against human HepG2 cells assessed as survival rate at 800 uM measured after 48 hrs by CCK-8 method relative to control; type: functional; conditions: read-out: Survival
# [22] = Hemolytic activity in sheep erythrocytes assessed as hemolysis at 128 ug/ml incubated for 1 hr by microplate reader based analysis relative to control; type: toxicity, cell-based, Ovis aries, Erythrocyte; conditions: at 128 µg/mL, read-out: Activity
# [23] = target: T1, Enoyl-[acyl-carrier-protein] reductase [NADPH] FabI (Staphylococcus aureus); assay: Inhibition of N-terminal his 6 tagged Staphylococcus aureus Fabi (1 to […] residues) expressed in Escherichia coli BL21 at 2.5 uM incubated for 30 mins in presence of NADPH by fluorescence based microplate reader analysis relative to control
# Staphylococcus aureus [24] = assay: In vivo antibacterial activity against methicilin-resistant Staphylococcus aureus ATCC33591 infected in BALB/c mouse skin infection model assessed as restoration of cell morphology at 20 mg/kg administered daily for 4 days by H and E staining based analysis; type: functional, organism-based; conditions: time 4.0 day
# Staphylococcus aureus [25] = assay: In vivo antibacterial activity against methicilin-resistant Staphylococcus aureus ATCC33591 infected in BALB/c mouse skin infection model assessed as reduction in number of inflammatory cells at 20 mg/kg administered daily for 4 days by H and E staining based analysis; type: functional, organism-based; conditions: time 4.0 day
# Staphylococcus aureus [26] = assay: In vivo antibacterial activity against methicilin-resistant Staphylococcus aureus ATCC33591 infected in BALB/c mouse skin infection model assessed as decrease in lesion size at 10 mg/kg administered daily for 4 days (reference value: 43.4 mm2); type: functional; conditions: time 4 day
# Staphylococcus aureus [27] = assay: In vivo antibacterial activity against methicilin-resistant Staphylococcus aureus ATCC33591 infected in BALB/c mouse skin infection model assessed as reduction in area of injury at 20 mg/kg administered daily for 4 days by H and E staining based analysis; type: functional, organism-based; conditions: time 4.0 day
# Staphylococcus aureus [28] = assay: Antimicrobial activity against […] Staphylococcus aureus ATCC33591 assessed as reduction in DNA content measured after 4 hrs by microplate reader based analysis; type: functional
SMILES,MIC (Staphylococcus aureus [1]) [µg/mL],inhibition [2] [%],MIC (Candida albicans) [µg/mL],MIC (Acinetobacter baumannii) [µg/mL],MIC (Staphylococcus aureus [3]) [µg/mL],inhibition [4] [%],MIC (Pseudomonas aeruginosa) [µg/mL],MIC (Escherichia coli) [µg/mL],IC50 [5] [µM],MIC (Enterococcus faecalis) [µg/mL],MIC (Staphylococcus aureus [6]) [µg/mL],MIC (Staphylococcus aureus [7]) [µg/mL],IC50 [8] [µM],MIC (Staphylococcus aureus [9]) [µg/mL],MIC (Enterococcus faecium) [µg/mL],MIC (Staphylococcus aureus [10]) [µg/mL],IC50 [11] [µM],"hemolysis at 1 h, 64 ug/ml [13] [%]",selectivity ratio [14],viability at 400 µM (HepG2 [15]) [%],also measured
Cn1c(C2CC(=O)N(c3cccc(Br)c3F)C2)nc2ccccc21 (centres undefined),4,71.2,> 32,> 32,2,95.3,> 32,> 32,0.266,> 32,2,4,0.0359,4,> 32,8,0.482,–,–,–,–
CO[C@H]1/C=C/O[C@@]2(C)Oc3c(C)c(O)c4c(O)c(c(/C=N/N5CCN(C)CC5)c(O)c4c3C2=O)NC(=O)/C(C)=C\C=C\[C@H](C)[C@H](O)[C@@H](C)[C@@H](O)[C@@H](C)[C@H](OC(C)=O)[C@@H]1C [RIFAMPIN],–,–,–,–,–,–,–,–,–,–,–,–,–,–,–,–,–,–,–,–,MIC (Staphylococcus aureus [12]): 0.016 µg/mL
Cn1c(C2CC(=O)N(c3cccc(Cl)c3Cl)C2)nc2ccccc21 (centres undefined),2,73.7,> 32,> 32,2,98.8,> 32,> 32,0.266,> 32,2,2,0.0359,4,> 32,4,0.495,2.4,> 64,> 70,"viability at 48 h, 800 µM [16]: > 75%; HC50 at 1 h [17]: > 256 µg/mL; viability at 48 h, 400 µM [18]: > 70%; MIC (Staphylococcus aureus [19]): 2 µg/mL; hemolysis at 1 h, 256 ug/ml [20]: 7.5%; viability at 800 µM (HepG2 [21]): > 75%; hemolysis at 1 h, 128 ug/ml [22]: 4.3%"
Cc1cccc(N2CC(c3nc4ccccc4n3C)CC2=O)c1C (centres undefined),16,53.1,> 32,> 32,8,95.7,> 32,> 32,–,> 32,8,16,–,8,> 32,16,0.977,–,–,–,inhibition [23]: 76.8%
Cn1c(C2CC(=O)N(c3cccc(Br)c3Cl)C2)nc2ccccc21 (centres undefined),2,80.3,> 32,> 32,1,97.4,> 32,> 32,0.266,> 32,2,1,0.0359,2,> 32,4,0.331,2.8,> 64,> 70,"viability at 48 h, 800 µM [16]: > 75%; HC50 at 1 h [17]: > 256 µg/mL; viability at 48 h, 400 µM [18]: > 70%; MIC (Staphylococcus aureus [19]): 1 µg/mL; hemolysis at 1 h, 256 ug/ml [20]: 10.6%; viability at 800 µM (HepG2 [21]): > 75%; hemolysis at 1 h, 128 ug/ml [22]: 4.7%"
CC(=O)NC[C@H]1CN(c2ccc(N3CCOCC3)c(F)c2)C(=O)O1 [LINEZOLID],–,–,> 32,> 32,–,–,> 32,> 32,–,–,–,1,–,–,2,> 32,–,–,–,–,Activity (Staphylococcus aureus [24]): inactive; Activity (Staphylococcus aureus [25]): inactive; Activity (Staphylococcus aureus [26]): 25.7 mm2; Activity (Staphylococcus aureus [27]): inactive
CCn1c(C2CC(=O)N(c3cccc(Br)c3C)C2)nc2ccccc21 (centres undefined),2,82.5,> 32,> 32,2,96.3,> 32,> 32,0.266,> 32,2,1,0.0359,1,> 32,2,0.342,4.3,> 128,> 70,"viability at 48 h, 800 µM [16]: > 65%; HC50 at 1 h [17]: > 256 µg/mL; viability at 48 h, 400 µM [18]: > 70%; MIC (Staphylococcus aureus [19]): 1 µg/mL; hemolysis at 1 h, 256 ug/ml [20]: 12.7%; viability at 800 µM (HepG2 [21]): > 65%; hemolysis at 1 h, 128 ug/ml [22]: 7.5%"
C[C@H]1COc2c(N3CCN(C)CC3)c(F)cc3c(=O)c(C(=O)O)cn1c23 [LEVOFLOXACIN ANHYDROUS],–,–,–,–,–,–,–,–,–,–,–,–,–,–,–,–,–,–,–,–,MIC (Staphylococcus aureus [28]): 1 µg/mL
Cc1c(Cl)cccc1N1CC(c2nc3ccccc3n2C)CC1=O (centres undefined),2,76.8,> 32,> 32,2,99.1,> 32,> 32,0.266,> 32,2,4,0.0359,2,> 32,4,0.429,3.8,> 64,> 70,"viability at 48 h, 800 µM [16]: > 65%; HC50 at 1 h [17]: > 256 µg/mL; viability at 48 h, 400 µM [18]: > 70%; MIC (Staphylococcus aureus [19]): 2 µg/mL; hemolysis at 1 h, 256 ug/ml [20]: 13.2%; viability at 800 µM (HepG2 [21]): > 65%; hemolysis at 1 h, 128 ug/ml [22]: 6.9%"
Cc1cccc(N2CC(c3nc4ccccc4n3C)CC2=O)c1 (centres undefined),> 32,4.9,> 32,> 32,> 32,67.7,> 32,> 32,–,> 32,> 32,> 32,–,> 32,> 32,> 32,5.7,–,–,–,–
Cc1c(O)cccc1N1CC(c2nc3ccccc3n2C)CC1=O (centres undefined),8,61.7,> 32,> 32,8,96.9,> 32,> 32,–,> 32,8,8,–,4,> 32,8,0.65,–,–,–,–
